Results: US20160106107A1, “Compositions and Methods for Treating Microorganism” (priority 2006, published 2016)
Where “and” joins values, the source holds several entries; their conditions need not be identical. Equal values may be shown once. Read-outs that look alike come from different tables or passages of the source.

Assays:
[1] = system: Erwinia carotovora subsp. carotovora (Ecc) biofilm; assay: Ecc biofilm susceptibility, 24 h contact time; format: cell-based; settings: for Ecc biofilm cell counts (unlabelled fourth line = mean of 3) / Log reduction of Ecc biofilms / Ecc biofilm cell counts (single replicates): 24 h contact time
Description: Carotovora (Ecc), the Soft Rot of Vegetables Pathogen, in Comparison to Nanocrystalline Silver Powder

[2] = system: naturally occurring microorganisms (bacteria and fungi) on bean seed surface; settings: for Bacterial reduction / Fungal reduction / Total microbial reduction: vs untreated seeds, Experiments 1-3
Description: They included seeds that would normally be discarded during processing in a commercial seed treatment facility—damaged, discoloured, shrivelled or small seeds. Due to the fact they were not cleaned these seeds still contain soil, dirt, plant debris, etc. Therefore, this seed lot was expected to provide a good model for a high natural microbial challenge, with good diversity of organisms and high microbial recovery expected.
These seeds were processed and cleaned in a commercial seed treatment facility. Processing leads to rejection of small, damaged, and/or discoulored seeds, and thus a healthier overall seed lot. After processing, seeds were washed and cleaned, resulting in a significant reduction in soil, dirt or debris.
Experiments were conducted by treating lots of ‘Othello’ and ‘AC Polaris’ seeds with challenges described in Table 10. Seeds were placed individually onto wells of 12-well microtiter plates and treated for 1 h with silver and/or water. After treatment, seeds were rinsed by dipping into fresh phosphate buffer and subsequently transferred to a new 12-well microtiter plate containing fresh phosphate buffer and sonicated for 15-30 min. Sonication allowed for surviving bacterial and fungal to be removed from the seed surface and recovered into the liquid. After 6 days, each of the wells containing seeds were scored based on both: • the turbidity of the liquid in which they were originally immersed for treatment, on day 6. • seed surface area covered by bacterial and/or fungal colonization, also on day 6.
Six seeds were scored in each experiment and each experiment was repeated 3 times independently. Numbers presented on Tables 11, 13, and 15 represent the mean of 6 scores. […] Total microbial scores (bacteria and fungi together) and are represented as percentage of killing on Tables 12, 14, and 16.

[3] = system: dry bean (Phaseolus vulgaris L) seeds, cultivar Othello; assay: Germination of dry bean seeds with aqueous seed coating under high bacterial load; format: in vivo; settings: for # seeds germinated / % germination / Day to 25% germination: high bacterial load
Procedure: The efficacy of high valency silver ions produced by oxysilver nitrate was evaluated as a seed treatment on diseased dry bean seeds. The oxysilver nitrate was applied as an aqueous seed coating on the germination of dry bean (Phaseolus vulgaris L).
Seeds were placed on blotters in Petri plates, were soaked in an excess of water for 3 days, then drained on day 4. The 3-day period of excess water created a very high bacterial load′ on the germinating seeds and high disease pressure due to pathogenic, saprophytic and soft-rot bacteria. This disease pressure was so extreme that the germination rates for experiments 2-5 were essentially zero due to being overwhelmed by the microbial growth.

[4] = system: Orford (Soybean) seeds; settings: for % of seeds germinated: Day 7 (speed of germination); for % germination: Day 14
Description: Germination on blotters was scored at 7- and 14-days. Emergence from soil was scored at 21- and 28-days.
To treat seeds, one hundred seeds were placed in a 50-mL Falcon tube and combined with the treatment solution. Seeds were mixed with the treatment for 5-min by gently rolling and inverting the Falcon tube. Coated seeds were placed in an open Petri plate for 30-min to dry. Seeds were sown 10-per pot, set in a greenhouse, and maintained under standard conditions with mercury lamp lighting supplementing daylight from 3:00 pm to 10:00 pm.
Stir constantly. 5% solution—after the 10% solution has equilibrated for 15-min, add 0.5-mL of 10% solution to 0.5-mL of sterile water. Stir constantly. 2.5% solution—add 0.25-mL of 10% solution to 0.75-mL of sterile water. Stir constantly. 1% solution—add 0.1-mL of 10% solution to 0.9-mL of sterile water. Stir constantly. […] Gently roll and invert the tube for 5 min to evenly coat each seed without causing damage. Remove seeds from tube by pouring carefully into an empty Petri plate. Leave exposed (lid off) and air dry seeds for 30 min.
(1) Germination: Place 50 seeds from each treatment onto 25 individual moistened blotters in large Petri plates. Incubate at room temperature for 2-weeks with or without light. Score germination at 7- and 14-days. (2) Emergence: Sow 50 seeds from each treatment into five pots (10-seeds per pot and five pots per treatment). Place in a greenhouse at 22° C. with ample air circulation. Use mercury lamps to supplement lighting (on at 3:00 pm; off at 10:00 pm) if necessary. For pre-emergent plants, water pots as needed to keep soil moist but not wet. Water emergent plants daily. Score emergence at 21 and 28 days.
After seeds were treated and air-dried, they were sown in potted, non-sterile soil in a greenhouse. Alternatively they were placed on moist blotters in large Petri plates.

[5] = system: healthy dry bean seed; assay: Germination of healthy dry bean seed; format: in vivo
[6] = system: Pseudomonas syringae pv. phaseolicola HB-9 planktonic
[7] = system: Pseudomonas syringae pv. phaseolicola HB-9 biofilm
[8] = system: Pseudomonas syringae pv. phaseolicola on bean seed surface; settings: Experiments 1-3; for Total microbial score: day 6, bacteria + fungi
[9] = AC Polaris Inoculated, vs untreated seeds
[10] = AC Polaris seeds, inoculated w/ bacteria, 0.1%, 1 h, scored day 6 on scale 0-5, mean of 6 seeds
[11] = Othello Inoculated, vs untreated seeds
[12] = lowest concentration (5000 ppm)

oxysilver nitrate [High valency silver]
Ecc biofilm cell counts (unlabelled fourth line = mean of 3) ([1]; 50 ppm): 1.53 log10
Log reduction of Ecc biofilms ([1]; 50 ppm): 2.23
Ecc biofilm cell counts (single replicates) ([1]; 50 ppm, listed as Oxy): 1.60 log10 and 1.00 log10 and 2.00 log10
Ecc biofilm cell counts (unlabelled fourth line = mean of 3) ([1]; 100 ppm): 0.65 log10
Log reduction of Ecc biofilms ([1]; 100 ppm): 3.11
Ecc biofilm cell counts (single replicates) ([1]; 100 ppm, listed as Oxy): 0 log10 (2×) and 1.95 log10
Ecc biofilm cell counts (unlabelled fourth line = mean of 3) ([1]; 200 ppm): 0.70 log10
Log reduction of Ecc biofilms ([1]; 200 ppm): 3.06
Ecc biofilm cell counts (single replicates) ([1]; 200 ppm, listed as Oxy): 0 log10 (2×) and 2.11 log10
Ecc biofilm cell counts (single replicates) ([1]; 500 ppm): 0 log10
Ecc biofilm cell counts (unlabelled fourth line = mean of 3) ([1]; 500 ppm): 0.00 log10
Log reduction of Ecc biofilms ([1]; 500 ppm): 3.76
anti-microbial efficacy compared with nanocrystalline silver ([1]; plant pathogenic Erwinia spp.): as efficacious as nanocrystalline silver
Bacterial reduction ([2]; AC Polaris Non-inoculated): 67% and 90% and 100%
Fungal reduction ([2]; AC Polaris Non-inoculated): 100% and 62%
Total microbial reduction ([2]; AC Polaris Non-inoculated): 81% and 78% and 100%
Bacterial reduction ([2]; Othello Non-inoculated): 80% and 62% and 88%
Fungal reduction ([2]; Othello Non-inoculated): 70% and 100% and 74%
Total microbial reduction ([2]; Othello Non-inoculated): 75% and 86% and 81%
bactericidal and fungicidal efficacy ([2]; various bacterial and fungal species associated with seed surfaces, 3 independent replications): good bactericidal and fungicidal efficacy
# seeds germinated ([3]; 0.1%): 53
% germination ([3]; 0.1%): 35.3%
Day to 25% germination ([3]; 0.1%): 5 days
# seeds germinated ([3]; 0.5%): 53
% germination ([3]; 0.5%): 35.3%
Day to 25% germination ([3]; 0.5%): 5 days
germination higher than Apron Maxx RTA ([3]; 1%, by day 10): 54%
increase of germination compared with the negative control (sterile water) ([3]; 1%, by day 10): 34.7%
# seeds germinated ([3]; 1%): 91
% germination ([3]; 1%): 60.7%
Day to 25% germination ([3]; 1%): 5 days
# seeds germinated ([3]; […]): 51
% germination ([3]; […]): 43.0%
Day to 25% germination ([3]; […]): 5 days
% of seeds germinated ([4]; 0.1%): 28%
% germination ([4]; 0.1%): 50%
% of seeds germinated ([4]; 0.5%): 34.5%
% germination ([4]; 0.5%): 58%
% of seeds germinated ([4]; 1%): 59.4%
% germination ([4]; 1%): 64%
germination rate higher than water ([4]; 1%, after 14 days): 34%
% of seeds germinated ([4]; […]): 29.6%
% germination ([4]; […]): 54%
bacterial growth on treated seeds ([4]; soybean seeds and blotters): did not appear to have major bacterial growth
# seeds germinated ([5]; 0.1%): 84
% germination ([5]; 0.1%): 84%
Day to 50% germination ([5]; 0.1%): 6.5 days
Day to 100% germination ([5]; 0.1%): 9.0 days
# seeds germinated ([5]; 0.5%): 86
% germination ([5]; 0.5%): 86%
Day to 50% germination ([5]; 0.5%): 6.0 days
Day to 100% germination ([5]; 0.5%): 9.0 days
# seeds germinated ([5]; 1%): 89
% germination ([5]; 1%): 89%
Day to 100% germination ([5]; 1%): 9.0 days
# seeds germinated ([5]; […]): 81
% germination ([5]; […]): 81%
Day to 100% germination ([5]; […]): 9.0 days
germination compared with water control or Apron Maxx RTA ([5]; healthy dry bean seed): more rapid germination and higher percent germination rate
PspHB-9 Planktonic cell counts ([6]; 100 ppm): 0 log10
PspHB-9 Planktonic cell counts ([6]; 500 ppm): 0 log10
PspHB-9 Planktonic cell counts ([6]; 1000 ppm): 0 log10
eradication of planktonic ([6]; at the lowest concentration): 100%
PspHB-9 Biofilm cell counts ([7]; 100 ppm): 0 log10
PspHB-9 Biofilm cell counts ([7]; 500 ppm): 0 log10
PspHB-9 Biofilm cell counts ([7]; 1000 ppm): 0 log10
eradication of biofilm ([7]; at the lowest concentration): 100%
Bacterial reduction [8, 9]: 100% and 96%
Total microbial reduction [8, 9]: 100% and 96%
Total microbial score ([8]; AC Polaris seeds, inoculated w/ bacteria, 0.1%, 1 h): 0
Total microbial score ([8]; AC Polaris seeds, inoculated w/ bacteria, 0.1%, 1 h, listed as High valency silver nitrate 1): 0.16
Bacteria score [8, 10]: 0
Fungi score [8, 10]: 0
Bacteria score ([8]; AC Polaris seeds, inoculated w/ bacteria, 0.1%, 1 h, scored day 6 on scale 0-5, mean of 6 seeds, listed as High valency silver nitrate 1): 0.16
Bacterial reduction [8, 11]: 41% and 78% and 60%
Fungal reduction [8, 11]: 78% and 75% and 100%
Total microbial reduction [8, 11]: 65% and 77% and 79%
Total microbial score ([8]; Othello seeds, inoculated w/ bacteria, 0.1%, 1 h): 1.83 and 1.32 and 1.66

O=S(=O)([O-])[O-].[Cu+2] [Copper sulfate]
PspHB-9 Planktonic cell counts ([6]; 1250 ppm): 2.95 log10
PspHB-9 Planktonic cell counts ([6]; 2900 ppm): 0 log10
PspHB-9 Planktonic cell counts ([6]; 4600 ppm): 0 log10
reduction of planktonics [6, 12]: ~48%
PspHB-9 Biofilm cell counts ([7]; 1250 ppm): 5.15 log10
PspHB-9 Biofilm cell counts ([7]; 2900 ppm): 0 log10
PspHB-9 Biofilm cell counts ([7]; 4600 ppm): 0 log10
reduction of biofilms [7, 12]: 17%
concentration required to be effective ([7]; planktonic cells and biofilms): 11460 ppm
